Measurements: patent publication US20170362283A1, “NISIN-BASED COMPOUNDS AND USE THEREOF IN THE TREATMENT OF BACTERIAL INFECTIONS” (UNIVERSITEIT UTRECHT HOLDING B.V., priority 2015, published 2017)
Like-named read-outs stand apart in the source and are kept apart here.

How the values were obtained:
[1] = test system: VRE 155; format: cell-based; settings: duplicate experiments
Method in brief: (§1)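 Broth dilution MIC following CLSI M07-A9; overnight TSB cultures diluted to 0.5×10^6 CFU in TSB and incubated with compound at 37° C for 16 hours. MIC read by visual inspection of growth.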

[2] = test system: M. luteus; format: cell-based; settings: duplicate experiments
Method in brief: as §1

[3] = test system: E. faecium E1162; assay: BioScreen growth assay for E. faecium E1162; format: cell-based; settings: 5 μM
Protocol: (§2) A BioScreen C instrument (Oy Growth Curves AB, Helsinki, Finland) was used to monitor effects of the compounds (6), (10), and (12) and the effect of compound (24) with R1-group (e), or Comparative compound B (nisin) on E. faecium growth (each compound administered at a fixed concentration 5 μM). E. faecium strains were inoculated at an initial OD660 of 0.05 into 300 μl TSB containing 1% DMSO and 1% glucose or into the same medium containing the antibiotic compounds at a final concentration of 5 μM. […]
(§3) The E. faecium strains used in these experiments are E. faecium E745 (vancomycin-ampicillin resistant hospital outbreak strain), E. faecium E980 (vancomycin-ampicillin susceptible human commensal isolate), E. Faecium E1133 (vancomycin-ampicillin resistant hospital outbreak strain), and E. faecium E1162 (vancomycin-susceptible ampicillin-resistant clinical isolate). The BioScreen growth assays for each strain was determined for the compounds (6), (10), (12) and also for compound (24) with R1-group (e) as well as nisin (Comparative compound B) and compared to non-treated strains, the results being shown in the Tables 9 to 12 below.

[4] = Lipid II-binding in model membranes (carboxyfluorescein efflux from LUVs); format: biochemical; settings: concentration of 5 nM; CF-loaded DOPC LUVs with 0.2% lipid II
Protocol: Large unilamellar vesicles (LUVs), composed of 1,2-dioleoyl-sn-glycero-3-phosphocholine (DOPC) spiked with 0.2% lipid II, were loaded with carboxyfluorescein (CF). The CF efflux was monitored by measuring the increase in fluorescence intensity at 515 nm, with excitation at 492 nm. In a cuvette, a solution (1 mL) of CF-loaded vesicles (20 μM final concentration) in buffer (Tris.HCl, pH 7.0 containing 100 mM NaCl) was prepared and the relevant final concentration of compounds (6), (10), and (12), and also compound (24) with R1-group (e), were added and the mixture was stirred for 1 min and the fluorescence was recorded (A0). After ca. 10 seconds, nisin (comparative compound B) was added (5 nM final concentration) and the fluorescence was followed until it stabilized, then recorded (Astable). Total membrane leakage was induced by the addition of Triton-X100 (final concentration 0.1%) and the fluorescence was recorded (Atotal). The percentile values were calculated by: […]

[5] = test system: S. aureus; settings: duplicate experiments
[6] = test system: E. coli; settings: duplicate experiments
[7] = test system: B. subtilis; settings: duplicate experiments
[8] = test system: E. faecium E980; assay: BioScreen growth assay for E. faecium E980; format: cell-based; settings: 5 μM
Protocol: as §2, §3

[9] = test system: thirty VRE strains
[10] = test system: MRSA USA300; format: cell-based, Staphylococcus aureus; settings: duplicate experiments
Method in brief: as §1

[11] = test system: MRSA WKZ2; format: cell-based, Staphylococcus aureus; settings: duplicate experiments
Method in brief: as §1

[12] = test system: E. faecium E745; assay: BioScreen growth assay for E. faecium E745; format: cell-based; settings: 5 μM
Protocol: as §2, §3

**Q.** With nisin [Compound B] as the substance, how does the “MIC values VRE 155” value [1] read?
**A.** The value was 5 µg/mL.

**Q.** And the “MIC values M. luteus” value [2]?
**A.** The value was 0.02 to 0.03 µg/mL.

**Q.** What about the OD600 ([3]; time 0 h) of the same substance?
**A.** The OD600 was 0.024.

**Q.** And the OD600 ([3]; time 4 h)?
**A.** Its OD600 is 0.01533.

**Q.** And the OD600 ([3]; time 8 h)?
**A.** The OD600 was 0.01133.

**Q.** What about the OD600 ([3]; time 12 h) of the same substance?
**A.** Its OD600 is 0.012.

**Q.** What about the OD600 ([3]; time 16 h) of the same substance?
**A.** The OD600 was 0.01033.

**Q.** What about the “leakage of the CF dye” value [4] of the same substance?
**A.** The value was “about 50%”.

**Q.** What about the “MIC values S. aureus” value [5] of the same substance?
**A.** The value was 10 µg/mL.

**Q.** What about the “MIC values E. coli” value [6] of the same substance?
**A.** The value was over 10 µg/mL.

**Q.** And the “MIC values B. subtilis” value [7]?
**A.** Its value is 0.625 to 2.5 µg/mL.

**Q.** And the OD600 ([8]; time 0 h)?
**A.** Its OD600 is 0.016.

**Q.** What about the OD600 ([8]; time 4 h) of the same substance?
**A.** The OD600 was 0.01167.

**Q.** And the OD600 ([8]; time 8 h)?
**A.** The OD600 was 0.011.

**Q.** And the OD600 ([8]; time 12 h)?
**A.** Its OD600 is 0.011.

**Q.** What about the OD600 ([8]; time 16 h) of the same substance?
**A.** The OD600 was 0.01067.

**Q.** What about the MIC ([9]; VRE strain E0013, GBR, vanA) of the same substance?
**A.** Its MIC is 8 µg/mL.

**Q.** And the MIC ([9]; VRE strain E0072, NLD, vanA)?
**A.** Its MIC is 2 µg/mL.

**Q.** And the MIC ([9]; VRE strain E0300, USA, vanA)?
**A.** Its MIC is 8 µg/mL.

**Q.** And the MIC ([9]; VRE strain E0321, FRA, vanA)?
**A.** The MIC was 2 µg/mL.

**Q.** What about the MIC ([9]; VRE strain E0333, ISR, vanA) of the same substance?
**A.** The MIC was 4 to 8 µg/mL.

**Q.** What about the MIC ([9]; VRE strain E0338, ITA, vanA) of the same substance?
**A.** Its MIC is 8 µg/mL.

**Q.** And the MIC ([9]; VRE strain E0341, GBR, vanA)?
**A.** Its MIC is 4 µg/mL.

**Q.** And the MIC ([9]; VRE strain E0506, AUS, vanA)?
**A.** Its MIC is 4 to 8 µg/mL.

**Q.** And the MIC ([9]; VRE strain E0745, NLD, vanA)?
**A.** Its MIC is 4 µg/mL.

**Q.** And the MIC ([9]; VRE strain E1130, USA, vanA)?
**A.** The MIC was 4 to 8 µg/mL.

**Q.** What about the MIC ([9]; VRE strain E1441, GRC, vanA) of the same substance?
**A.** The MIC was 4 µg/mL.

**Q.** And the MIC ([9]; VRE strain E1679, BRA, vanA)?
**A.** The MIC was 4 µg/mL.

**Q.** What about the MIC ([9]; VRE strain E1763, BEL, vanA) of the same substance?
**A.** The MIC was 8 µg/mL.

**Q.** And the MIC ([9]; VRE strain E2297, USA, vanA)?
**A.** The MIC was 4 µg/mL.

**Q.** What about the MIC ([9]; VRE strain E2359, SGP, vanB) of the same substance?
**A.** Its MIC is 8 µg/mL.

**Q.** What about the MIC ([9]; VRE strain E2365, HUN, vanB) of the same substance?
**A.** Its MIC is 2 to 4 µg/mL.

**Q.** What about the MIC ([9]; VRE strain E2373, SRB, vanA) of the same substance?
**A.** Its MIC is 4 µg/mL.

**Q.** And the MIC ([9]; VRE strain E6016, LVA, vanA)?
**A.** The MIC was 4 µg/mL.

**Q.** What about the MIC ([9]; VRE strain E7312, NLD, vanA) of the same substance?
**A.** Its MIC is 4 µg/mL.

**Q.** What about the MIC ([9]; VRE strain E7314, NLD, vanB) of the same substance?
**A.** Its MIC is 4 to 8 µg/mL.

**Q.** What about the MIC ([9]; VRE strain E7319, NLD, vanA) of the same substance?
**A.** Its MIC is 4 µg/mL.

**Q.** What about the MIC ([9]; VRE strain E7329, NLD, vanA) of the same substance?
**A.** Its MIC is 4 µg/mL.

**Q.** And the MIC ([9]; VRE strain E7401, NLD, vanB)?
**A.** The MIC was 8 µg/mL.

**Q.** What about the MIC ([9]; VRE strain E7403, NLD, vanB) of the same substance?
**A.** The MIC was 4 µg/mL.

**Q.** What about the MIC ([9]; VRE strain E7413, NLD, vanA) of the same substance?
**A.** The MIC was 4 µg/mL.

**Q.** And the MIC ([9]; VRE strain E7424, NLD, vanB)?
**A.** The MIC was 4 µg/mL.

**Q.** And the MIC ([9]; VRE strain E7464, NLD, vanB)?
**A.** Its MIC is 4 µg/mL.

**Q.** And the MIC ([9]; VRE strain E8218, NLD, vanB)?
**A.** The MIC was 4 µg/mL.

**Q.** What about the MIC ([9]; VRE strain E8235, NLD, vanB) of the same substance?
**A.** Its MIC is 4 µg/mL.

**Q.** And the MIC ([9]; VRE strain E8237, NLD, vanA)?
**A.** The MIC was 8 µg/mL.

**Q.** What about the “MIC values MRSA USA300” value [10] of the same substance?
**A.** Its value is 10 µg/mL.

**Q.** What about the “MIC values MRSA WKZ2” value [11] of the same substance?
**A.** Its value is 10 µg/mL.

**Q.** And the OD600 ([12]; time 0 h)?
**A.** The OD600 was 0.01733.

**Q.** And the OD600 ([12]; time 4 h)?
**A.** The OD600 was 0.01033.

**Q.** And the OD600 ([12]; time 8 h)?
**A.** The OD600 was 0.01033.

**Q.** What about the OD600 ([12]; time 12 h) of the same substance?
**A.** The OD600 was 0.01067.

**Q.** And the OD600 ([12]; time 16 h)?
**A.** Its OD600 is 0.008667.
